Biological target: human PDE10A2 (Homo sapiens (Human), UniProt Q9Y233)
Experiment: PDE10 fluorescence polarization (IMAP FP) inhibition assay
Assay type: biochemical
Conditions: human PDE10A2 from transfected AD293 cells; FAM-labeled cAMP 50 nM; apparent inhibition constant; read-out: PDE10A Ki
How it was run: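 Cytoplasmic lysate of AD293 cells transiently expressing human PDE10A2 (enzyme level giving 20% conversion) incubated with 50 nM FAM-cAMP in pH 7.2 Tris/MgCl2 buffer, 30 min at room temperature. IMAP binding solution added, FP read after ≥1 h; 10-point 3-fold compound titrations fitted to a four-parameter equation.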

Sequence of human PDE10A2 (Q9Y233 267-1055): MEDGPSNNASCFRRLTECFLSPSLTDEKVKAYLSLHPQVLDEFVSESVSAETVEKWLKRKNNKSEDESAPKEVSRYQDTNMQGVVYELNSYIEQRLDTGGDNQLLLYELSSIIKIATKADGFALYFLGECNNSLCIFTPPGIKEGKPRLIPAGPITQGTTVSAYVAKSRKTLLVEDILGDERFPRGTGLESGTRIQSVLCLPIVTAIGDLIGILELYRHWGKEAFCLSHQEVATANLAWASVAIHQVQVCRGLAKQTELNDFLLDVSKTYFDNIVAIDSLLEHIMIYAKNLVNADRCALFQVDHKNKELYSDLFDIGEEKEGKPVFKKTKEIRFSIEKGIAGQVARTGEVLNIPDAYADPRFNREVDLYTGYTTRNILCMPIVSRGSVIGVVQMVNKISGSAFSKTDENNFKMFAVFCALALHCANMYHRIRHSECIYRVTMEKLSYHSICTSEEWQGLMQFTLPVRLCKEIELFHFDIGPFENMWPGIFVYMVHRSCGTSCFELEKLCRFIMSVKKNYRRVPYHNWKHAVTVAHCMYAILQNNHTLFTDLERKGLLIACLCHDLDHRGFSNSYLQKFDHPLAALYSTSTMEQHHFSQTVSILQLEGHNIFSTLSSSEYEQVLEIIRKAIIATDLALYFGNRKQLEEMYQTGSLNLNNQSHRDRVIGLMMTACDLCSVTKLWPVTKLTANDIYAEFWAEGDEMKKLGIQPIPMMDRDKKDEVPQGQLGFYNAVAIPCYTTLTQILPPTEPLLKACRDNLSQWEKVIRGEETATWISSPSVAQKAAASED

| Structure (SMILES) | Ki [nM] |
| --- | --- |
| COc1ccc([C@H]2C[C@@H]2COc2nc(C)ncc2-c2ccc(OC(CO)CO)nc2)nc1 [Example 71, 2-(5-(4-(((1S,2S)-2-(5-methoxypyridin-2-yl)cyclopropyl)methoxy)-2-methylpyrimidin-5-yl)pyridin-2-yloxy)propane-1,3-diol] | 4.78 |
| COc1ccc([C@H]2C[C@@H]2COc2nc(C)ncc2-c2ccc(-c3nc(CCl)no3)cc2)nc1 [Example 94, 3-(chloromethyl)-5-(4-(4-(((1S,2S)-2-(5-methoxypyridin-2-yl)cyclopropyl)methoxy)-2-methylpyrimidin-5-yl)phenyl)-1,2,4-oxadiazole] | 1.17 |

Source: US9663513B2, “Pyrimidine PDE10 inhibitors” (Merck Sharp & Dohme Corp., priority 2012, dated 2017)
